Reference: patent US8809270B2, “Method for reducing cardiovascular morbidity and mortality in prediaetic patients and patients with type 2 diabetes” (priority 2003, dated 2014)

Legend:
[1] = test system: individuals with IGT, IFG, or mild untreated type 2 diabetes; experiment: Study HOE901/1021: blood glucose response to 15-minute stationary bicycle exercise; set-up: species or system human; settings: in vivo
Experimental: The study was conducted at three centers in the US. After screening tests, including fasting plasma glucose (FPG) and post prandial plasma glucose (PPG; two hours following a 75 g oral glucose load) for classification as IGT, IFG, diabetic, or normal glucose tolerance (NGT), and after satisfying other inclusion criteria including the ability to perform moderate exercise on a stationary bicycle, subjects were admitted to an inpatient study center. They were confined there for the next 15 days, during which time they were randomly assigned to receive either HOE901 once per day subcutaneously in the evening, or matching placebo (saline) injections in a 3:1 randomization (HOE901:placebo). Baseline assessments included a 5-point (before each meal, bedtime, and 3 AM) and 8-point (5-point plus readings 2 hours after each meal) blood glucose profile on separate days, and 15 minutes of exercise on a stationary bicycle at a level of exertion of “somewhat hard” on the Borg scale with blood glucose values monitored during and for 3 hours following the exercise. Each subject received a 25 kCal/kg diet while confined in the study center. Capillary whole blood glucose values were recorded on HemoCue devices. Episodes of hypoglycemia (blood glucose 50 mg/dL [2.8 mM] or symptoms with blood glucose 65 mg/dL [3.6 mM]) were recorded. […]

[2] = test system: type 2 diabetic patients already treated with other oral antidiabetic drugs; experiment: Study 4014: lipid data, LANTUS versus rosiglitazone; format: in vivo, human; set-up: Triglycerides % reduction from baseline / Triglycerides % reduction from baseline, LANTUS-AVANDIA / Non-HDL Cholesterol Total % reduction from baseline: concentration or dose not given beside the values; Triglycerides Baseline / Triglycerides Endpoint: unit not given beside the values; settings: for Triglycerides % reduction from baseline, LANTUS-AVANDIA / Triglycerides change at endpoint, LANTUS-AVANDIA: LANTUS minus AVANDIA
[3] = test system: individuals with IGT, IFG, or mild untreated type 2 diabetes; experiment: Study HOE901/1021: adverse events and hypoglycemia; format: in vivo, human
Experimental: The study was conducted at three centers in the US. After screening tests, including fasting plasma glucose (FPG) and post prandial plasma glucose (PPG; two hours following a 75 g oral glucose load) for classification as IGT, IFG, diabetic, or normal glucose tolerance (NGT), and after satisfying other inclusion criteria including the ability to perform moderate exercise on a stationary bicycle, subjects were admitted to an inpatient study center. They were confined there for the next 15 days, during which time they were randomly assigned to receive either HOE901 once per day subcutaneously in the evening, or matching placebo (saline) injections in a 3:1 randomization (HOE901:placebo). Baseline assessments included a 5-point (before each meal, bedtime, and 3 AM) and 8-point (5-point plus readings 2 hours after each meal) blood glucose profile on separate days, and 15 minutes of exercise on a stationary bicycle at a level of exertion of “somewhat hard” on the Borg scale with blood glucose values monitored during and for 3 hours following the exercise. Each subject received a 25 kCal/kg diet while confined in the study center. Capillary whole blood glucose values were recorded on HemoCue devices. Episodes of hypoglycemia (blood glucose 50 mg/dL [2.8 mM] or symptoms with blood glucose 65 mg/dL [3.6 mM]) were recorded.
Treatment-emergent adverse events (TEAEs) occurred in 10 subjects in the HOE901 group (16 events) vs. 2 in the placebo group (5 events). Each event occurred in only 1 individual except for headache, which occurred in 3 HOE901 subjects. Only 2 HOE901 subjects and 1 placebo subject had events that were considered by investigators as possibly related to study drug. The HOE901 events were 2 episodes of headache, and one of hypoglycemia. The two headaches occurred in subjects who had hypoglycemic events on the same days and at approximately the same time as the headaches. […] Subject 3011 (who reported dizziness as an adverse event during screening) was removed from the study by the sponsor prior to receiving any study drug dose because of hypoglycemia that occurred during screening.
Only mild hypoglycemia occurred in 4 out of 16 subjects treated with HOE901 in this study. These hypoglycemic events generally occurred before lunch or supper, and resolved promptly with oral caloric intake. No episodes of hypoglycemia occurred in relation to exercise. Although the calorie-restricted diet subjects consumed during this study doubtless played a role in the occurrence of these events, the diet was typical in size for what is recommended to these frequently overweight individuals. […] Hypoglycemia can occur, but is manageable not related to exercise, and detectable with the aid of home glucose monitoring.

Question: Which “hypoglycemic events during exercise” value [1] does the source give for insulin glargine [LANTUS] here?
Answer: no hypoglycemic events

Question: What about the “HDL Baseline” value ([2]; TG baseline range 200-500) of the same substance?
Answer: 38

Question: What about the “HDL Endpoint” value ([2]; TG baseline range 200-500) of the same substance?
Answer: 40

Question: And the “LDL Baseline” value ([2]; TG baseline range 200-500)?
Answer: 115

Question: And the “LDL Endpoint” value ([2]; TG baseline range 200-500)?
Answer: 111

Question: And the “Non-HDL Cholesterol Total Baseline” value ([2]; TG baseline range 200-500)?
Answer: 168

Question: And the “Non-HDL Cholesterol Total Endpoint” value ([2]; TG baseline range 200-500)?
Answer: 152

Question: And the “Triglycerides % reduction from baseline” value ([2]; TG baseline range 200-500)?
Answer: 18%

Question: And the “Triglycerides Baseline” value ([2]; TG baseline range 200-500)?
Answer: 285

Question: And the “Triglycerides Endpoint” value ([2]; TG baseline range 200-500)?
Answer: 234

Question: And the “Triglycerides % reduction from baseline, LANTUS-AVANDIA” value ([2]; TG baseline range 200-500)?
Answer: 18%

Question: What about the “Triglycerides change at endpoint, LANTUS-AVANDIA” value ([2]; TG baseline range 200-500) of the same substance?
Answer: 47.7

Question: And the “HDL Baseline” value ([2]; TG baseline range 300-500)?
Answer: 32

Question: And the “HDL Endpoint” value ([2]; TG baseline range 300-500)?
Answer: 34

Question: And the “Non-HDL Cholesterol Total % reduction from baseline” value ([2]; TG baseline range 300-500)?
Answer: 4%

Question: And the “Non-HDL Cholesterol Total Baseline” value ([2]; TG baseline range 300-500)?
Answer: 156

Question: And the “Non-HDL Cholesterol Total Endpoint” value ([2]; TG baseline range 300-500)?
Answer: 150

Question: And the “Triglycerides % reduction from baseline” value ([2]; TG baseline range 300-500)?
Answer: 27%

Question: And the “Triglycerides Baseline” value ([2]; TG baseline range 300-500)?
Answer: 380

Question: What about the “Triglycerides Endpoint” value ([2]; TG baseline range 300-500) of the same substance?
Answer: 277

Question: What about the “Triglycerides % reduction from baseline, LANTUS-AVANDIA” value ([2]; TG baseline range 300-500) of the same substance?
Answer: 18%

Question: And the “Triglycerides change at endpoint, LANTUS-AVANDIA” value ([2]; TG baseline range 300-500)?
Answer: 68.5

Question: What about the “HDL Baseline” value ([2]; TG baseline range 500-1000) of the same substance?
Answer: 28

Question: And the “HDL Endpoint” value ([2]; TG baseline range 500-1000)?
Answer: 29

Question: What about the “Non-HDL Cholesterol Total Baseline” value ([2]; TG baseline range 500-1000) of the same substance?
Answer: 178

Question: What about the “Non-HDL Cholesterol Total Endpoint” value ([2]; TG baseline range 500-1000) of the same substance?
Answer: 153

Question: What about the “Triglycerides Baseline” value ([2]; TG baseline range 500-1000) of the same substance?
Answer: 817

Question: And the “Triglycerides Endpoint” value ([2]; TG baseline range 500-1000)?
Answer: 494

Question: What about the “Treatment-emergent adverse events (TEAEs), events” value ([3]; in vivo) of the same substance?
Answer: 16 events

Question: And the “Treatment-emergent adverse events (TEAEs), subjects” value ([3]; in vivo)?
Answer: 10 subjects

Question: What about the headache ([3]; in vivo) of the same substance?
Answer: 3 subjects

Question: And the safety and tolerability ([3]; in vivo)?
Answer: safe and well tolerated

Question: And the serious adverse events ([3]; in vivo)?
Answer: no serious adverse events

Question: And the “subjects with events considered by investigators as possibly related to study drug” value ([3]; in vivo)?
Answer: 2 subjects

Question: What about the mild hypoglycemia ([3]; out of 16 subjects treated) of the same substance?
Answer: 4 subjects
